Results taken from ChEMBL document CHEMBL1143518, “Binding of isotryptamines and indenes at h5-HT6 serotonin receptors” (Bioorg Med Chem Lett, 2005).

Target: 5-hydroxytryptamine receptor 6 (Homo sapiens, UniProt P50406)
Assay: Binding affinity against human 5-Hydroxytryptamine 6 receptor expressed in HEK293 cells using [3H]LSD done for 90 minutes at pH 7.4 at room temperature
Type: cell-based

Chain of 5-hydroxytryptamine receptor 6 (P50406 whole entry): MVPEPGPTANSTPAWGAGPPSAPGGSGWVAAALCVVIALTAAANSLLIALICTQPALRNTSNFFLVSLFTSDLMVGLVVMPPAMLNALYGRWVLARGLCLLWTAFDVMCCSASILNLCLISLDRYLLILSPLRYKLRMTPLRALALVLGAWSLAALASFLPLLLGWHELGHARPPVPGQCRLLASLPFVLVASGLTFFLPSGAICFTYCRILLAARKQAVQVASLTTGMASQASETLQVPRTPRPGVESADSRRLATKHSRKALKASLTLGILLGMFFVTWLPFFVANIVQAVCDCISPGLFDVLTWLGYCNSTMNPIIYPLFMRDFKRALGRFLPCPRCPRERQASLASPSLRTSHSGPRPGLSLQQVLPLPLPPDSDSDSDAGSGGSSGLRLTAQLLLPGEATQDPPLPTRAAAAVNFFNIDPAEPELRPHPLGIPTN

Going from `Nc1ccc(Cc2c[nH]c3ccccc23)cc1` to `Nc1ccc(CC2=CCc3ccccc32)cc1`, the Ki rises from 2530 nM to 11800 nM (4.7-fold). The first binds more tightly here.

`Nc1ccc(CC2C=Cc3ccccc32)cc1` (configuration not stated) and `Nc1ccc(CC2CCc3ccccc32)cc1` (configuration not stated) are within 1.5-fold of each other in Ki: 4470 nM for the first, 6100 nM for the second.

Going from `Nc1ccc(SC2CCc3ccccc32)cc1` (configuration not stated) to `Nc1ccc(S(=O)(=O)C2CCc3ccccc32)cc1` (configuration not stated), the Ki falls from 4200 nM to 740 nM (5.7-fold). The second binds more tightly here.

Going from `CN(C)CCc1cn(CCc2ccccc2)c2ccccc12` to `CN(C)CCn1cc(Cc2ccc(N)cc2)c2ccccc21`, the Ki rises from 12 nM to 50 nM (4.2-fold).

First: CN(C)CCC1=C/C(=C\c2ccccc2)c2ccccc21
Second: CNCCC1=CC(CCc2ccccc2)c2ccccc21 (configuration not stated)
The Ki of the first is 1.8-fold lower: 57 nM for the first, 100 nM for the second.

Going from `CNCCC1=CC(Cc2ccccc2)c2ccccc21` (configuration not stated) to `Nc1ccc(/C=C2\C=Cc3ccccc32)cc1`, the Ki rises from 3 nM to 640 nM (210-fold). The first binds more tightly here.
